Laboratory results taken from PubChem BioAssay (NCI).
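In this assay, cells in 96-well plates receive the compound at five concentrations for 48 hours. Endpoints are linearly interpolated between the surrounding concentrations. At the TGI there is no net growth.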

Assays:
Experiment in all cases: NCI anticancer screen, dose series, 48 h
MCF7 breast = tested on: MCF7 breast
T-47D breast = tested on: T-47D breast
MDA-N = tested on: MDA-N
SNB-75 CNS = tested on: SNB-75 CNS
OVCAR-4 ovarian = tested on: OVCAR-4 ovarian
A498 renal = tested on: A498 renal
DU-145 prostate = tested on: DU-145 prostate
MALME-3M melanoma = tested on: MALME-3M melanoma
OVCAR-3 ovarian = tested on: OVCAR-3 ovarian
RPMI-8226 leukemia = tested on: RPMI-8226 leukemia
IGROV1 ovarian = tested on: IGROV1 ovarian
SF-539 CNS = tested on: SF-539 CNS
UACC-257 melanoma = tested on: UACC-257 melanoma
SK-MEL-5 melanoma = tested on: SK-MEL-5 melanoma
RXF 393 renal = tested on: RXF 393 renal
ACHN renal = tested on: ACHN renal
U251 CNS = tested on: U251 CNS
COLO 205 colon = tested on: COLO 205 colon
PC-3 prostate = tested on: PC-3 prostate
A549 NSCLC = tested on: A549 NSCLC
UACC-62 melanoma = tested on: UACC-62 melanoma
OVCAR-8 ovarian = tested on: OVCAR-8 ovarian
NCI-H460 lung = tested on: NCI-H460 lung
SNB-19 CNS = tested on: SNB-19 CNS
OVCAR-5 ovarian = tested on: OVCAR-5 ovarian
EKVX NSCLC = tested on: EKVX NSCLC
NCI-H226 lung = tested on: NCI-H226 lung
UO-31 renal = tested on: UO-31 renal
NCI-H23 lung = tested on: NCI-H23 lung
M14 melanoma = tested on: M14 melanoma
HCT-116 colon = tested on: HCT-116 colon
HS 578T breast = tested on: HS 578T breast
SN12C renal = tested on: SN12C renal
BT-549 breast = tested on: BT-549 breast
HCT-15 colon = tested on: HCT-15 colon
SR leukemia = tested on: SR leukemia
SF-268 CNS = tested on: SF-268 CNS
HOP-62 NSCLC = tested on: HOP-62 NSCLC
MOLT-4 leukemia = tested on: MOLT-4 leukemia
NCI/ADR-RES ovarian = tested on: NCI/ADR-RES ovarian
SW-620 colon = tested on: SW-620 colon
KM12 colon = tested on: KM12 colon
HL-60(TB) leukemia = tested on: HL-60(TB) leukemia
SF-295 CNS = tested on: SF-295 CNS
SK-MEL-28 melanoma = tested on: SK-MEL-28 melanoma
K-562 leukemia = tested on: K-562 leukemia
CCRF-CEM leukemia = tested on: CCRF-CEM leukemia
HT29 colon = tested on: HT29 colon
786-0 renal = tested on: 786-0 renal
SK-MEL-2 melanoma = tested on: SK-MEL-2 melanoma
SK-OV-3 ovarian = tested on: SK-OV-3 ovarian
MDA-MB-231 breast = tested on: MDA-MB-231 breast
MDA-MB-435 = tested on: MDA-MB-435
CAKI-1 renal = tested on: CAKI-1 renal
LOX IMVI melanoma = tested on: LOX IMVI melanoma
TK-10 renal = tested on: TK-10 renal
HOP-92 NSCLC = tested on: HOP-92 NSCLC
NCI-H522 lung = tested on: NCI-H522 lung

SMILES: CCCCC/C=C\C=C1\C(=O)C=C[C@@H]1C/C=C\CCCC(=O)O
- TGI (MCF7 breast): 12.9 µM
- TGI (T-47D breast): 24.5 µM
- TGI (MDA-N): 7.14 µM
- TGI (SNB-75 CNS): 17.7 µM
- TGI (OVCAR-4 ovarian): 6.28 µM
- TGI (A498 renal): 21.4 µM
- TGI (DU-145 prostate): 15.5 µM
- TGI (MALME-3M melanoma): 25 µM
- TGI (OVCAR-3 ovarian): 9.82 µM
- TGI (RPMI-8226 leukemia): 3.15 µM
- TGI (IGROV1 ovarian): 8.93 µM
- TGI (SF-539 CNS): 12.8 µM
- TGI (UACC-257 melanoma): 14.7 µM
- TGI (SK-MEL-5 melanoma): 11.2 µM
- TGI (RXF 393 renal): 6.93 µM
- TGI (ACHN renal): 9.48 µM
- TGI (U251 CNS): 8.39 µM
- TGI (COLO 205 colon): 9.36 µM
- TGI (PC-3 prostate): 5.13 µM
- TGI (A549 NSCLC): 18.7 µM
- TGI (UACC-62 melanoma): 12 µM
- TGI (OVCAR-8 ovarian): 3.73 µM
- TGI (NCI-H460 lung): 16.5 µM
- TGI (SNB-19 CNS): 12.1 µM
- TGI (OVCAR-5 ovarian): 9.72 µM
- TGI (EKVX NSCLC): 5.61 µM
- TGI (NCI-H226 lung): 14.8 µM
- TGI (UO-31 renal): 13.4 µM
- TGI (NCI-H23 lung): 15.5 µM
- TGI (M14 melanoma): 15.1 µM
- TGI (HCT-116 colon): 2.74 µM
- TGI (HS 578T breast): 13.4 µM
- TGI (SN12C renal): 8.06 µM
- TGI (BT-549 breast): 5.13 µM
- TGI (HCT-15 colon): 14.9 µM
- TGI (SR leukemia): 5.53 µM
- TGI (SF-268 CNS): 13.6 µM
- TGI (HOP-62 NSCLC): 8.62 µM
- TGI (MOLT-4 leukemia): 60 µM
- TGI (NCI/ADR-RES ovarian): 2.66 µM
- TGI (SW-620 colon): 9.09 µM
- TGI (KM12 colon): 11.9 µM
- TGI (HL-60(TB) leukemia): 17.9 µM
- TGI (SF-295 CNS): 11.5 µM
- TGI (SK-MEL-28 melanoma): 13.9 µM
- TGI (K-562 leukemia): 60 µM
- TGI (CCRF-CEM leukemia): 3.28 µM
- TGI (HT29 colon): 12 µM
- TGI (786-0 renal): 9.73 µM
- TGI (SK-MEL-2 melanoma): 9.85 µM
- TGI (SK-OV-3 ovarian): 14.4 µM
- TGI (MDA-MB-231 breast): 18.7 µM
- TGI (MDA-MB-435): 9.16 µM
- TGI (CAKI-1 renal): 14.9 µM
- TGI (LOX IMVI melanoma): 8.19 µM
- TGI (TK-10 renal): 18 µM

SMILES: C=C(Br)CN(C)CC(=C)Br
- TGI (HOP-92 NSCLC): > 100 µM
- TGI (MCF7 breast): > 100 µM
- TGI (T-47D breast): > 100 µM
- TGI (MDA-N): > 100 µM
- TGI (SNB-75 CNS): > 100 µM
- TGI (OVCAR-4 ovarian): > 100 µM
- TGI (A498 renal): > 100 µM
- TGI (DU-145 prostate): > 100 µM
- TGI (MALME-3M melanoma): > 100 µM
- TGI (OVCAR-3 ovarian): > 100 µM
- TGI (RPMI-8226 leukemia): > 100 µM
- TGI (IGROV1 ovarian): > 100 µM
- TGI (UACC-257 melanoma): > 100 µM
- TGI (SK-MEL-5 melanoma): > 100 µM
- TGI (RXF 393 renal): > 100 µM
- TGI (ACHN renal): > 100 µM
- TGI (U251 CNS): > 100 µM
- TGI (COLO 205 colon): > 100 µM
- TGI (PC-3 prostate): > 100 µM
- TGI (A549 NSCLC): > 100 µM
- TGI (UACC-62 melanoma): > 100 µM
- TGI (OVCAR-8 ovarian): > 100 µM
- TGI (NCI-H460 lung): > 100 µM
- TGI (SNB-19 CNS): > 100 µM
- TGI (OVCAR-5 ovarian): > 100 µM
- TGI (EKVX NSCLC): > 100 µM
- TGI (UO-31 renal): > 100 µM
- TGI (NCI-H23 lung): > 100 µM
- TGI (M14 melanoma): > 100 µM
- TGI (HCT-116 colon): > 100 µM
- TGI (HS 578T breast): > 100 µM
- TGI (SN12C renal): > 100 µM
- TGI (BT-549 breast): > 100 µM
- TGI (NCI-H522 lung): > 100 µM
- TGI (HCT-15 colon): > 100 µM
- TGI (SR leukemia): > 100 µM
- TGI (SF-268 CNS): > 100 µM
- TGI (HOP-62 NSCLC): > 100 µM
- TGI (MOLT-4 leukemia): > 100 µM
- TGI (NCI/ADR-RES ovarian): > 100 µM
- TGI (SW-620 colon): > 100 µM
- TGI (KM12 colon): > 100 µM
- TGI (HL-60(TB) leukemia): > 100 µM
- TGI (SF-295 CNS): > 100 µM
- TGI (SK-MEL-28 melanoma): > 100 µM
- TGI (K-562 leukemia): > 100 µM
- TGI (CCRF-CEM leukemia): > 100 µM
- TGI (HT29 colon): > 100 µM
- TGI (786-0 renal): > 100 µM
- TGI (SK-MEL-2 melanoma): > 100 µM
- TGI (SK-OV-3 ovarian): > 100 µM
- TGI (MDA-MB-231 breast): > 100 µM
- TGI (MDA-MB-435): > 100 µM
- TGI (CAKI-1 renal): > 100 µM
- TGI (LOX IMVI melanoma): > 100 µM
- TGI (TK-10 renal): > 100 µM
